Consider 90 compounds from a melting point compilation (Tetko et al.; mined from patent text by program, amines drawn as free bases though some values may be those of a salt).

On to `CCCCCCOc1c(OCCCCCC)c(OC(=O)C(C)(C)C)c2ccccc2c1OC(=O)C(C)(C)C`, for which the melting point lay within 111 to 112 °C. With `CN(C)c1ccc(/C=C/c2ccccc2F)cc1` the figure was 124 to 126 °C; with `Brc1ccc2c(c1)CCC=C2n1ccnc1`, 58 to 64 °C. With `CC(C)(C)c1ccc(C(=O)Nc2cn3c4c(ccc3n2)OCC4)cn1` the figure was 246 to 248 °C; with `O=C(Nc1c[nH]nc1C(=O)NC1CCCCC1)c1ccccn1`, 262 to 263 °C; with `CC12CC(O)C3(F)C(CCC4=CC(=O)C=CC43C)C1CC=C2SCOC(=O)c1ccccc1` (stereo not given), 220 to 222 °C.

Turning to `COc1cc(Nc2nc3cccc(-c4ccccc4)c3o2)cc(OC)c1OC`, the melting point was 182 to 185 °C.

Compound `COc1ccc(C2(C#Cc3ccnc(S(C)(=O)=O)n3)CCC(=O)CC2)cc1OC1CCCC1` showed a melting point of 60 to 64 °C. With `N#Cc1csc2c1CCN(C(=O)C(F)(F)F)CC2c1ccccc1` (stereo not given) the figure was 107 °C. `COc1ccc(CN2C(=O)C(C)(c3cc(COCCO)ccc3Cl)c3cc(Cl)ccc32)c(OC)c1` (stereo not given) registered a melting point of 53 °C.

Regarding `COc1cc(C(=O)Nc2ccc3c(c2)CN(C)CC3)cc(OC)c1OC`, the melting point was 158 °C. In the case of `Nc1nccc(OCCc2ccccc2)c1N` it was 86 to 87 °C; in that of `CCOC(=O)C1=NN(c2ccc([N+](=O)[O-])cc2)C2(N3CCCC3)CCCC12` (stereo not given), 118 °C; in that of `Cc1oc(-c2ccccc2)nc1CNS(=O)(=O)c1ccc(CC2SC(=O)NC2=O)cc1` (stereo not given), 120 to 122 °C. The compound `Cc1cc(-c2nc(CCl)co2)sc1Br` displayed a melting point of 71 to 72 °C.

Regarding `CC(C)(C)c1ncc(Nc2ncc(-c3ccc4ccncc4c3)c3ccccc23)cn1`, the melting point is 231 to 232 °C. With `CCCC1(CCC)CCC2(CC1)CC(=O)N(CCC#N)C2=O` the figure was 117 to 118 °C; with `CC(=O)Nc1cc(C2=NOC(c3cc(Cl)cc(Cl)c3)(C(F)(F)F)C2)ccc1-n1cncn1` (stereo not given), 230 to 233 °C; with `CC(Oc1ccc(Oc2ncc(C(F)(F)F)cc2Cl)cc1)C(=O)Nc1ccc(C(F)(F)F)cc1` (stereo not given), 140 to 143 °C.

`O=C(CC(CCCc1ccccc1)C(=O)O)c1ccc2c3c(oc2c1)CCCC3` (stereo not given) yielded a melting point of 142 to 144 °C.

In turn, `COc1ccc(C=CC(=O)c2cccc([N+](=O)[O-])c2)c(OC)c1` had a melting point of 88.1 to 88.7 °C. Compound `CCc1nc(Br)c(Br)[nH]1` displayed a melting point of 149 to 150 °C. In the case of `Cc1ccc(N2C(=O)C(O)=C(C(=O)c3ccc(C(C)C)cc3)C2c2ccc(O)cc2)nn1` (stereo not given) it was 222 to 224 °C; in that of `CCc1nc2c(cnn2CC)c(NC2CCOCC2)c1CNC(=O)c1cc(C)cc(C(=O)NCc2ccc(Cl)c(-c3cccc(C=O)c3)c2)c1`, 153 to 156 °C. With `CN1CCn2nc(Nc3cc(-c4cccc(N5Cc6cc(N(C)C)ccc6C5=O)c4CO)cn(C)c3=O)cc2C1` the figure was 148 to 150 °C; with `COC(=O)c1ccc2c(c1)ncn2-c1ccc(OC)c(C2CCCC2)c1`, 129 to 131 °C; with `Cc1nc(N2CCN(Cc3ccccc3)C2=O)sc1C(=O)NCc1cccnc1`, 153 to 154 °C. With `COc1ccc(Cl)cc1-c1nccn1-c1ccccc1` the figure was 97 to 102 °C.

Compound `COC(=O)[C@@H](O)[C@@H](OC(C)=O)[C@H](OC(C)=O)[C@H](C=O)OC(C)=O` showed a melting point of 104 to 110 °C.

For the compound `O[C@@H]1CCc2ccc(F)cc2C1`, the melting point lay within 59 to 61 °C. In the case of `O=C(NCCCO)c1c([N+](=O)[O-])ccc(N(CCBr)CCBr)c1[N+](=O)[O-]` it was 115 to 117 °C; in that of `CCc1cccc(CC(=O)O)c1OCCCc1cn(-c2ncc(C(F)(F)F)cc2Cl)nc1C(C)C`, 93 to 95 °C; in that of `COCCOCCOc1ccc2cc(C(=O)O)[nH]c2c1`, 99 to 102 °C. `O=C(NCCCc1ccncc1)N(CCC12CC3CC(CC(C3)C1)C2)C1CC1` showed a melting point of 108 to 116 °C.

In the case of `CCc1cn2ccccc2c1S(=O)(=O)c1ccc(OS(=O)(=O)c2ccc(C)cc2)c(C)c1`, the melting point was determined as 164 °C. In the case of `O=C(Nc1cccc(O)c1)c1ccc(CSc2ccc(O)cc2)cc1` it was 218 to 222 °C; in that of `CCN(CCCCCCN)c1ccc2c(=O)[nH][nH]c(=O)c2c1`, 170 °C. Take `CCn1nc2c(N)nc3ccccc3c2c1CC(C)C`: the melting point is 208 to 209 °C. As to `COc1cc(C(=O)O)c(O)c2c1C(C)(C)CCC2(C)C`, the melting point was 213 °C. The compound `CCCCCc1cccn1NS(=O)(=O)C1CCCC=C1C(=O)OCC` (stereo not given) returned a melting point of 60 to 61 °C. As to `CCN(CC)S(=O)(=O)c1ccc2c(c1)S(=O)(=O)NC(C1CCCCC1)N2` (stereo not given), the melting point was 207 to 209 °C. `Cc1cc2c(N)c(C(=O)c3cc(F)ccc3F)sc2nc1C` came in with a melting point of 188 °C. With `O=C1N(Cc2cnc(Br)s2)c2ccccc2C12COc1cc3c(cc12)OCO3` (stereo not given) the figure was 215 to 217 °C.

Compound `O=C(c1ccc(F)cc1)C1CCN(CCCn2c(=S)[nH]c3ccccc3c2=O)CC1` had a melting point of 200 °C. Compound `CCOC(=O)c1cnn2c1nc(N)c1cnc3c(cnn3CC)c12` showed a melting point of 331 to 332 °C. In the case of `Oc1ccc(Nc2ccc3cc(Br)ccc3c2)cc1` it was 179 to 180 °C; in that of `CCCCc1ccc(CN(CCCCCCC(=O)O)S(C)(=O)=O)cc1`, 137 °C; in that of `COc1cc(/C=C/S(=O)(=O)CS(=O)(=O)/C=C/c2ccc(O)c(OC)c2)ccc1O`, 125 to 127 °C. In the case of `O=C(c1ccccc1Cl)c1cc(Cl)ccc1C#CCN1C(=O)c2ccccc2C1=O` it was 144 to 145 °C; in that of `CCCS(=O)(=O)n1ccc2ccc(N=C3NCCN3)cc21`, 213 °C. In the case of `Cc1cc(C)c2cc(C3CCNCC3)sc2c1` it was 83 to 88 °C. With `CCOCCc1cc(C)c(OCCN2C(C)C(Br)=C(C(N)=O)N2C)c(C)c1` (stereo not given), the melting point fell in the range of 112 to 114 °C. In the case of `CC(=O)OC1C2C=CC1C1N=NC21` (stereo not given), the melting point amounted to 58 °C. In the case of `NN1CC1c1ccccc1` (stereo not given) it was 60 °C.

`Clc1cccc(Cl)c1C=Nc1c2c(nc3ccccc13)CCCC2` showed a melting point of 200 to 202 °C. In the case of `COCc1ncnc(N2CCCCC2)c1C` it was 45 to 47 °C; in that of `CCCCCCCCn1c(C2=CC(=O)c3ccccc3C2=O)ccc1C1=CC(=O)c2ccccc2C1=O`, 75 to 76 °C. Turning to `Cc1ccc(S(=O)(=O)CNC=O)cc1`, the melting point was in the range of 103 to 107 °C. `Clc1ccc2c(c1)N=C(NCCCn1ccnc1)c1ccccc1N2` showed a melting point of 228 to 230 °C. With `Cn1nc2c(sc3ccccc32)c1N` the figure was 233 °C. Compound `NC(=O)C=Cc1ccc(NC(=O)C=C2CC(C(=O)OCc3ccccc3)Nc3cc(Cl)cc(Cl)c32)cc1` (racemic) yielded a melting point of over 250 °C.

As to `CC(c1oc2ccccc2c(=O)c1-c1cccc(F)c1)n1cnc2c(N)ncnc21` (stereo not given), the melting point lay in the range of 155 to 158 °C. `CN1CC[C@@H](c2c(O)cc(O)c3c(=O)cc(-c4cc(Cl)ccc4Br)oc23)[C@@H]1CO`: the melting point was 233 to 235 °C. In the case of `CN1CC(c2ccc(OCc3ccc(F)cc3)cn2)=C(O)C1=O` it was 210 to 211 °C; in that of `CCn1c(=O)oc2cc(N)ccc21`, 72 to 74 °C. With `Cc1noc(NS(=O)(=O)c2ccccc2[N+](=O)[O-])c1C` the figure was 91 to 94 °C. With `N#Cc1c(Br)[nH]c(-c2ccccc2)c1C#N` the figure was 225 to 258 °C; with `CC(C)(C)OC(=O)N(Cc1ccccc1)c1ccc(O)cc1`, 228 to 230 °C.

`COc1ccc(OCc2ccccn2)c(/C=C/c2cc(/C=C/c3ccc4cc[nH]c4c3)n[nH]2)c1` yielded a melting point of 119 to 124 °C. With `CCOC(=O)c1ccsc1NC(=O)NC`, the melting point is 83 to 87 °C. In the case of `Cc1c(CCN(C(=O)C(F)(F)F)c2cc3ccccc3n2C)ncn1S(=O)(=O)N(C)C`, the melting point lay in the range of 156 to 158 °C. With `COc1cc(OC)cc(-c2ncoc2-c2ccc(OC)c(O)c2N)c1` the figure was 140 to 143 °C; with `Oc1cc2c(cc1O)OCC(c1ccc3c(c1)OCO3)C2` (stereo not given), 163 to 164 °C; with `Nc1nc(Cl)cc(OC(F)(F)F)n1`, 55 to 56 °C. Take `CCOC(=O)c1cnc2c3ccccc3ccn2c1=O`: the melting point fell in the range of 183 to 184 °C. With `NC[C@H]1COc2ccc(Cl)c(-c3ccccc3C(F)(F)F)c2O1` the figure was 84 °C; with `OCc1cn(-c2ccc(Cl)c(Cl)c2)cn1`, 146 to 147 °C. In the case of `COC(=O)CCCCCCCCC(=O)c1ccccc1` it was 37 to 38 °C. As for `Fc1ccc(Nc2ncnc3ccc(-c4cccs4)cc23)cc1Cl`, the melting point lay in the range of 205 to 208 °C. In the case of `COCOc1cc(Cl)ccc1-c1cc(-c2cccc([N+](=O)[O-])c2)c(C#N)c(N)n1` it was 196 to 198 °C; in that of `CC(C)(C)c1cc(C=C(C#N)C(N)=S)cc(C(C)(C)C)c1`, 172 to 174 °C; in that of `CN1CCN(Cc2cc(C(=O)c3cccs3)cc(C(C)(C)C)c2O)CC1`, 118 to 119 °C.

Compound `CCOC(=O)N1CCN(C2=Nc3ccccc3Oc3ccc(Cl)cc32)CC1` had a melting point of 122 °C. With `Cc1cccc2c1CCn1cc(-c3ccccc3)nc1C2OC1CCN(C)CC1` (stereo not given) the figure was 71 °C; with `COc1ccc(CN2CCc3c(c(=O)oc4cc(OC)ccc34)C2)cc1`, 101 to 103 °C. With `CS(=O)(=O)c1ccc(-c2ccc(C(F)(F)F)n2-c2ccc(F)cc2)cc1` the figure was 136 to 139 °C.

As to `Nc1ccc2c(c1)C(=O)CCO2`, the melting point lay within 136 to 137 °C. Regarding `Cc1cc([N+](=O)[O-])c2[nH]ccc(=O)c2c1`, the melting point was in the range of 209 to 212 °C.

For the compound `CC1(C)C(=O)Nc2ccc(F)cc2N1C(=O)N1CCCC1`, the melting point is 199 to 200 °C.

The compound `CCOC(=O)CCNC(=O)Oc1c(C)n(C)ccc1=O` registered a melting point of 171 to 173 °C.

The melting point is the temperature, or range, at which the solid turns liquid.
